This note sets out measurements from patent US11684675B2, “Dimeric collagen hybridizing peptides and methods of using” (University of Utah Research Foundation, priority 2015, dated 2023).

Data set [1] is described as follows: Triple helix melting point (Tm) by circular dichroism at 225 nm. It counts as physicochemical. To be noted: for melting point: Example 3; for Tm (° C.): triple helix melting. Here is the method: (§1) FIGS. 5A, 5B, 5C, and 5D show the thermal denaturation of fully assembled CHPs and subsequent cooling to initial temperature. Samples were heated at 1° C./min from their initial temperature final temperature of 90° C. Sample was then cooled at 1° C./min to the starting temperature. (A) Thermal denaturation and partial reassembly of CHP CF-6d (150 μM) monitored at 225 nm. Sample was measured from 4° C. to 90° C. (B) Thermal denaturation and partial reassembly of CHP […] (75 μM, corresponding to 150 μM strand concentration) monitored at 225 nm. Sample was measured from 4° C. to 90° C. (C) Thermal denaturation and partial reassembly of CHP CF-9 (150 μM) monitored at 225 nm. Sample was measured from 10° C. to 90° C. (D) Thermal denaturation and partial reassembly of CHP CF-9d (75 μM, corresponding to 150 μM strand concentration) monitored at 225 nm. Sample was measured from 10° C. to 90° C.
FIGS. 11A and 11B show the First Derivative of mean residue ellipticity (MRE) at 225 nm in CD. […] There is no significant change in melting point between the monomeric and dimeric forms of the same peptide.
(§2) Circular Dichroism: Circular Dichroism (CD) was measured for all peptides at 225 nm. Melting curves were taken on peptides between 10 and 80° C. at a heating rate of 0.5° C./min, with pauses at each 1° C. Refolding experiments were performed after peptide solutions were incubated at 4° C. for at least 12 hours. Concentrations were normalized to strand concentration.
A general note: Circular dichroism is widely used to follow secondary structure.

The nature of data set [2]: CD refolding (triple helix assembly) at 10° C. monitored at 225 nm. It counts as physicochemical. To be noted: for folded after 2 hours: CD refolding. The procedure: Conversion was assumed to be at 100% after 96 h incubation at 4° C., and max trimer concentration was measured via CD ellipticity at 10° C. Samples were preheated to 80° C. in the sample cuvette for 10 min before being transferred directly to the sample holder held at a constant 10° C. Sample measurement began immediately. Initial time point for analysis was determined by measuring time for a blank (lx PBS) to thermally equilibrate in these conditions.
For all peptides, conversion was assumed to be at 100% after 96 h incubation at 4° C., and max trimer concentration was measured via CD ellipticity at 10° C. Samples were preheated to 80° C. in the sample cuvette for 10 min before being transferred directly to the sample holder held at a constant 10° C. Sample measurement began immediately. Initial time point for analysis was determined by measuring time for a blank (1×PBS) to thermally equilibrate in these conditions. This was set as the zero point for all peptides, as the large jump in CD due to temperature makes the initial jump irresolvable. (A) Rate of assembly of CHP 9 (60, 30, and 15 μM), over 2 h, monitored at 225 nm. (B) Rate of assembly of CHP 9d (30, 15, and 7.5 μM, corresponding to same CHP strand concentration from panel A), over 2 h, monitored at 225 nm. (C) Rate of assembly of CHP 6 (150 and 75 μM), over 2 h, monitored at 225 nm.
FIGS. 12A and 12B show CD refolding at 10° C. of CMPs monitored at 225 nm. CMPs were heated to 80° C. for 5 minutes before being placed into the CD and initial 2 min of monitored data was removed to eliminate thermal transition. Signal was normalized to that of a fully folded peptide.
as §2

The nature of data set [3]: CD thermal denaturation and cooling gradient 90 to 4° C., refolding. To be noted: cooling 1° C./min from 90° C. It counts as physicochemical. Here is the method:
as §1
The dimeric CHPs can also form their triple helices much more readily during slow cooling when compared to their monomeric counterparts. After thermal denaturation and heating to 90° C., the peptides were exposed to a decreasing thermal gradient from 90 to 4° C. (1° C./min) during which the ellipticity at 225 nm was monitored. During these cooling gradients, the dimeric CHPs began refolding at a higher temperature than the monomers with the same number of repeat units. […]

For data set [4], the system named is crosslinked gelatin films. The data set can be described thus: Binding of CF-labelled CHPs to crosslinked gelatin films at 37° C. with and without preheating. Set-up: species or system porcine. To be noted: 20 μM, 37° C. overnight, PBS wash 20 h, FIG. 6C. The procedure:
FIGS. 3A and 3B show the affinity of CHPs to gelatin films as monitored by fluorescence of conjugated CF fluorophore (492 ex, 533 em). (A) Fluorescence of CHPs bound to crosslinked gelatin after incubation at 37° C. overnight with no workup. (B) Fluorescence of CHPs remaining in crosslinked gelatin after incubation at 37° C. overnight without preheating, followed by washing with 1×PBS at 37° C. (20 h).
(A) Fraction of peptide remaining in a crosslinked gelatin film after 17 h at 25° C. (10 total washes). Values are normalized to fluorescence remaining in wells after 6 washes at 4° C. (>95% removal of CHPs 9r, 6r, and 5r). All washes performed in 1×PBS. (B) CHPs (15 μM) premixed into 10% porcine gelatin and preheated to 80° C. (10 min) before being added to a 96 well plate. Excess CHP-gelatin mixture was removed, then the premix was incubated at 4° C. for 2 hours. Wells were washed at 4° C., 5 times (>95% removal of CHPs 9r, 6r, and 5r). Wells were then washed for 2 hours (6 washes total) at 25° C. to monitor CHP remaining in the well. (C) Fluorescence of CHPs remaining in crosslinked gelatin after incubation at 37° C. overnight without preheating, followed by washing with 1×PBS at 37° C. (20 h). (D) Fluorescence of CHPs remaining in crosslinked gelatin after incubation at 37° C. overnight (80° C. preheating, 10 min), followed by washing with 1×PBS at 37° C. (20 h).
Dimeric CHPs were assessed for their ability to bind to collagen strands in crosslinked gelatin films. CHP solutions (20 μM in PBS) were added directly to the crosslinked gelatin films. For heated experiments, CHPs were preheated to 80° C. for 10 minutes before addition. Peptides were allowed to fully equilibrate with the gel at 37° C. overnight before being exposed to repeated washes (4×, PBS) at 37° C. to fully remove any non-specifically bound peptide and to determine binding level at body temperature. To measure retention, peptides were bound as previously described, but were subsequently washed with PBS 37° C. (5×1 h, 1×12 h) to measure retention within the gelatin films. […] Additionally, after a period of 20 hours, higher level of the dimeric CHP remained in the gelatin compared to the monomeric CHP.
A major limitation of the use of CHP in vivo, is the requirement of the triple helix to be fully disassembled before being injected. […] For this test, peptide solutions were allowed to warm to room temperature before being added (50 μL, 20 μM) to previously prepared crosslinked gelatin films. Solutions were then incubated at 37° C. overnight before removing the solution. Wells were washed at 37° C. with PBS (20 h) to determine binding. Preheated samples were prepared and incubated in the same way, but with preheating (80° C., 10 min) before being added to the crosslinked gelatin wells.

The subject of another data set is porcine gelatin. The data set can be described thus: SPR gelatin capture by immobilized biotinylated CHPs. To be noted: gelatin 25 μg/mL. The format is binding. Here is the method: FIGS. 7A and 7B show SPR data for porcine gelatin capture by immobilized CHPs. […] Gelatin was applied to the sensor surface during the association phase, followed by elution with blank during dissociation phase. Association occurred for 981 s, followed by dissociation for 1800 s. Values were normalized to a 100% biotin lane, and were adjusted to the mass of peptide immobilized in each well. (A) Preheated (80° C., 10 min), quenched (0° C., 30 s) gelatin (25 μg/mL) was applied to the sensor at an ambient temperature of 37° C. (B) Preheated (80° C., 10 min), quenched (0° C., 30 s) gelatin (25 μg/mL) was applied to the sensor at an ambient temperature of 15° C.
Surface Plasmon Resonance (SPR). […] However, there were major differences observed during the association phase. At 37° C., there was a much higher amount of gelatin adsorbed to all the peptides tested on the surface when compared to 15° C. […] At 15° C., gelatin adsorbed to the surface at a much slower rate. […] However, this lower adsorption rate can be due to a reduced diffusion rate near the surface or a more condensed gelatin structure at this lower temperature.
Dimeric CHP is able to hybridize effectively with denatured collagens with faster folding kinetics than current, monomeric CHPs. Surface plasmon resonance (SPR) was used to measure the ability of the CHPs to trap denatured collagen from solution.

By melting point is commonly meant the temperature, or range, at which the solid turns liquid. On to (GPO)6 [compound 6], for which, in data set [1], the melting point stood at 37 °C. Besides, the “Tm (° C.)” value in data set [1] (Table 1) and in data set [1] (Table 2) was 37 (SEQ ID NO: 59) ° C each time. Also, the “refolding after two hours of incubation” value in data set [2] (10° C., same strand concentration) is “did not reach its half maximal refolding after two hours”. The “folded after 2 hours” value in data set [2] (75 μM) is listed as 28%. Also, the “temperature below the reported Tm until which no significant refolding was observed” value in data set [3] is “approximately 10 °C”. Also, the “binding to gelatin wells at 37° C. without preheating” value in data set [4] is recorded as “do not have a strong enough affinity to the gelatin to bind effectively at physiologic temperature”.
As to [(GPO)9G3)2KG [9d], the “Tm (° C.)” value in data set [1] (Table 1) and in data set [1] (Table 2) was 69 (SEQ ID NO: 55) ° C each time. In addition, in data set [2] (10° C., FIG. 12A), the “increase in refolding rate compared to monomeric GPO9” value is recorded as “two-fold”. In addition, the “binding to gelatin wells at 37° C. without preheating” value in data set [4] is on record as “bind more significantly than the GPO9 monomer without preheating”. Also, the “ability to bind gelatin” value is listed as “maintained its greater ability to bind gelatin” in the data set with porcine gelatin (15° C.) and “higher ability to bind gelatin than that of an equivalent number of strands in their monomeric counterparts” with porcine gelatin (37° C.).
Turning to (GPO)9 [compound 9], the melting point in data set [1] was 68 °C. Moreover, the “Tm (° C.)” value in data set [1] (Table 1) and in data set [1] (Table 2) was 68 (SEQ ID NO: 56) ° C in each case. Besides, in data set [2] (60 μM), the “folded after 2 hours” value is 40%. The “temperature below the reported Tm until which no significant refolding was observed” value in data set [3] is approximately 15 °C. The “binding to gelatin wells at 37° C. without preheating” value in data set [4] was “unable to bind significantly without preheating”.
